Measured values published in patent US8791263B2, “Cortistatin A analog and use thereof” (Osaka University, priority 2010, dated 2014).
Where two headings read alike, the source gives them in different places.

Legend:
[1] = test system: normal human umbilical vein endothelial cells (HUVEC); test: anti-proliferative activity against HUVEC (WST-8); type: cell-based; conditions: for selective anti-proliferative activity against vascular endothelial cells: HUVEC versus KB3-1, FIGS. 8 to 12; for IC50: Homo sapiens, HUVEC, 72 hours culture with compound, WST-8; for S.I. (Selective Index): IC50 against KB3-1 divided by IC50 against HUVEC
Protocol: (§1) CA-1, which is represented by formula (II), was used as test compound, and an existing anticancer drug doxorubicin was used as a control compound. The test compound and the control compound were separately dissolved at predetermined concentrations in EtOH. The cells used were normal human umbilical vein endothelial cells (HUVEC) and human pharyngeal carcinoma KB3-1 cells.
(§2) HUVEC and KB3-1 were seeded in separate 96-well multiwell plates at 2×10^3 cells/100 μL/well and cultured in an atmosphere of 5% CO2 at 37° C. for 24 hours. Next, 1.0 μL each of the ethanol solutions containing the test compound or the control compound at various concentrations were added, and the cells were cultured under the same conditions for additional 72 hours. After 72 hours, 10 μL of WST-8 (2-(2-methoxy-4-nitrophenyl)-3-(4-nitrophenyl)-5-(2,4-disulfophenyl)-2H-tetrazolium, monosodium salt) reagent was added. After 3-hour incubation, the amount of water-soluble formazan formed in viable cells was calorimetrically determined by measurement at OD 450 nm, and the growth inhibition ratio was calculated by comparison of the amount of formazan between the compound treatment groups and the non-treatment group. The anti-proliferative activities of the test compound and the control compound on each type of cells were expressed as a 50% growth inhibitory concentration (IC50 value). The cell type selectivity (Selective Index (S. I.) value) was expressed as a value resulting from division of the IC50 value against KB3-1 by the IC50 value against HUVEC.
CA-1, CA-2, CA-3, CA-4 and CA-5 were evaluated for anti-proliferative activity against normal human umbilical vein endothelial cells (HUVEC) and human pharyngeal carcinoma KB3-1 cells. The five test compounds were separately dissolved at predetermined concentrations in EtOH. HUVEC and KB3-1 were seeded in separate 96-well multiwell plates at 2×10^3 cells/100 μL/well and cultured in an atmosphere of 5% CO2 at 37° C. for 24 hrs. Next, 1.0 μL each of the ethanol solutions containing the test compound or the control compound at various concentrations were added, and the cells were cultured under the same conditions for additional 72 hours. After 72 hours, 10 μL of WST-8 (2-(2-methoxy-4-nitrophenyl)-3-(4-nitrophenyl)-5-(2,4-disulfophenyl)-2H-tetrazolium, monosodium salt) reagent was added. After 3-hour incubation, the amount of water-soluble formazan formed in viable cells was colorimetrically determined measurement at OD 450 nm, and the growth inhibition ratio was calculated by comparison of the amount of formazan between the compound treatment groups and the non-treatment group.

[2] = test system: human umbilical vein endothelial cells (HUVEC); conditions: cited from earlier work
[3] = test system: human umbilical vein endothelial cells (HUVEC); conditions: background art; cited from earlier work
[4] = test system: human pharyngeal carcinoma KB3-1 cells; test: anti-proliferative activity against KB3-1 (WST-8); type: cell-based; conditions: KB 3-1, 72 hours culture with compound
Protocol: as §1
as §2, with “After 72 hours, 10 μL of WST-8 (2-(2-methoxy-4-nitrophenyl)-3-(4-nitrophenyl)-5-(2,4-disulfophenyl)-2H-tetrazolium, monosodium salt) reagent was added.” left out, “The anti-proliferative activities of the test compound and the control compound on each type of cells were expressed as a 50% growth inhibitory concentration (IC50 value).” left out
CA-1, CA-2, CA-3, CA-4 and CA-5 were evaluated for anti-proliferative activity against normal human umbilical vein endothelial cells (HUVEC) and human pharyngeal carcinoma KB3-1 cells. […]

[5] = test system: Matrigel with proangiogenic factor bFGF (angiogenesis); test: in vivo anti-angiogenic activity after intraperitoneal administration (Matrigel, hemoglobin); conditions: not less than 10 mg/kg, once every two days, 5 times, ddY mice
Protocol: (§3) The test compound CA-1 was suspended at predetermined concentrations in 1% CMC. To control groups, the vehicle (1% CMC) was administered.
(§4) To 500 μL of Matrigel (trade name, manufactured by BD), 200 ng/mL of a proangiogenic factor bFGF (basic fibroblast growth factor) and 100 U/mL of heparin were added, and the mixture was subcutaneously injected into the flanks of female ddY mice (6-week old) with an injection needle of 23G. After the Matrigel injection, the test compound CA-1 or the vehicle (1% CMC) was intraperitoneally administered on a schedule of once every two days, 5 times in total. Aside from this, Matrigel without bFGF was injected into a group of mice and then the vehicle was administered thereto (negative control group). The anti-angiogenic effect was evaluated as follows: the day after the final administration of the test compound, the implanted Matrigel was harvested and weighed, and then the amount of hemoglobin accumulated in the Matrigel was compared between the test compound administration groups and the control groups. Significance analysis was performed using a Dunnett's test at a significance level of 5%.

Mouse sarcoma S180 cells [6] = test: antitumor activity in mouse cancer cell transplant model after intraperitoneal administration; type: in vivo, mice; conditions: for tumor weight, % of that of the control group: intraperitoneal, once every two days, 7 times
Protocol: (§5) The test compound CA-1 was suspended at predetermined concentrations in 1% CMC. The vehicle (1% CMC) was administered to the control group.
(§6) Mouse sarcoma S180 cells were suspended at 1×10^7 cells/mL in a serum-free RPMI culture medium and the suspension was kept on ice. Then, the S180 cell suspension was subcutaneously inoculated at 1×10^6 cells/100 μL/mouse into the flanks of female ddY mice (5-week old) with an injection needle of 23G. The mice were maintained for one week for engraftment of the S180 cells. Subsequently, the test compound (5 mg/kg, 10 mg/kg and 25 mg/kg) or the vehicle (1% CMC) was intraperitoneally administered on a schedule of on every two days, 7 times in total. The antitumor activity was evaluated as follows: one day after the final administration, tumors were isolated and weighed, and then the tumor weight was compared between the test compound administration groups and the control group.

[7] = test system: Matrigel with proangiogenic factor bFGF (angiogenesis); test: in vivo anti-angiogenic activity after oral administration (Matrigel, hemoglobin); design: species or system mice
Protocol: as §3, §4
The test was performed in the same manner as in Example 3, except that oral administration was performed instead of intraperitoneal administration and that a 5.0 mg/kg administration group was additionally included.

Mouse sarcoma S180 cells [8] = test: antitumor activity in mouse cancer cell transplant model after oral administration; type: in vivo, mice; conditions: for tumor weight, % of that of the control group: oral
Protocol: as §5, §6
The test was performed in the same manner as in Example 3, except that oral administration was performed instead of intraperitoneal administration and that a 50 mg/kg administration group was included instead of the 5 mg/kg administration group.

[9] = test system: human umbilical vein endothelial cells (HUVEC); test: migration and tubulogenesis of HUVEC; type: cell-based

## C[C@]12C=CC3=CC4=C(CC(C(=O)O)CC4=O)O[C@H]3[C@@H]1CC[C@@H]2c1ccc2ccncc2c1 (stereo partly drawn) [CA-4, (3R,3aR,11aS,11bR)-3-(isoquinolin-7-yl)-3a-methyl-7-oxo-1,2,3a,7,8,9,10,11a,11b-decahydrocyclopenta[c]xanthene-9-carboxylic acid]
[1]
  selective anti-proliferative activity against vascular endothelial cells: selectively inhibits the growth of vascular endothelial cells
[1]; listed as (XXIII)
  selective anti-proliferative activity against vascular endothelial cells: selective anti-proliferative activity against vascular endothelial cells in a broad range of concentration

## C[C@]12C=CC3=CC4=C(CC(CN)CC4=O)O[C@H]3[C@@H]1CC[C@@H]2c1ccc2ccncc2c1 (stereo partly shown) [CA-3]
[1]
  selective anti-proliferative activity against vascular endothelial cells: selectively inhibits the growth of vascular endothelial cells
[1]; listed as (XIX)
  selective anti-proliferative activity against vascular endothelial cells: selective anti-proliferative activity against vascular endothelial cells in a broad range of concentration

## CN(C)[C@H]1C[C@@]23CC[C@@]4(O2)C(=CC[C@]2(C)[C@@H](c5ccc6ccncc6c5)CC[C@H]24)C=C3[C@@H](O)[C@@H]1O [cortistatin A]
[2]; background art, read-out: IC50 against HUVEC
  IC50: 1.8 nM
[2]; versus other cancer cells
  anti-proliferative activity against HUVEC, times stronger than against other cancer cells: more than 3000 times
[3]
  migration and tubulogenesis of HUVEC: inhibits the migration and tubulogenesis of HUVEC

## C[C@]12C=CC3=CC4=C(CCCC4=O)O[C@H]3[C@@H]1CC[C@@H]2c1ccc2ccncc2c1 [CA-1, (3R,3aR,11aS,11bR)-3-(isoquinolin-7-yl)-3a-methyl-1,2,3,3a,9,10,11a,11b-octahydrocyclopenta[c]xanthen-7(8H)-one]
[1]
  selective anti-proliferative activity against vascular endothelial cells: selectively inhibits the growth of vascular endothelial cells
  IC50: 100 nM
  S.I. (Selective Index): 105
[1]; versus other cancer cells
  anti-proliferative activity against vascular endothelial cells, times stronger than against other cancer cells: more than 100 times
[4]
  IC50: 10.5 µM
[5]
  amount of hemoglobin accumulated in the Matrigel: significantly reduced the amount of hemoglobin accumulated in the Matrigel to almost the same level as that of the group injected with Matrigel not supplemented with the proangiogenic factor bFGF
Mouse sarcoma S180 cells [6]; 5 mg/kg
  tumor weight, % of that of the control group: 34%
Mouse sarcoma S180 cells [6]; 10 mg/kg
  tumor weight, % of that of the control group: 23%
Mouse sarcoma S180 cells [6]; 25 mg/kg
  tumor weight, % of that of the control group: 17%
Mouse sarcoma S180 cells [6]; intraperitoneal, 5, 10 and 25 mg/kg groups
  weight loss, diarrhea, visual abnormalities in organs: In no groups, weight loss or diarrhea, or visual abnormalities in organs of the mice were observed
[7]; 50 mg/kg
  amount of hemoglobin accumulated in the Matrigel: reduced to almost the same level as that of the group injected with Matrigel not supplemented with the proangiogenic factor bFGF
[7]; not less than 10 mg/kg
  amount of hemoglobin accumulated in the Matrigel: significantly reduced the amount of hemoglobin accumulated in the Matrigel
Mouse sarcoma S180 cells [8]; 10 mg/kg
  tumor weight, % of that of the control group: 67%
Mouse sarcoma S180 cells [8]; 25 mg/kg
  tumor weight, % of that of the control group: 50%
Mouse sarcoma S180 cells [8]; 50 mg/kg
  tumor weight, % of that of the control group: 25%
Mouse sarcoma S180 cells [8]; oral, 10, 25 and 50 mg/kg groups
  weight loss, diarrhea, visual abnormalities in organs: In no groups, weight loss or diarrhea, or visual abnormalities in organs of the mice were observed
[9]
  migration and tubulogenesis of HUVEC: inhibits the migration and tubulogenesis of human umbilical vein endothelial cells (HUVEC)

## COc1cccc2c1C(=O)c1c(O)c3c(c(O)c1C2=O)C[C@@](O)(C(=O)CO)C[C@@H]3O[C@H]1C[C@H](N)[C@H](O)[C@H](C)O1 [doxorubicin, reference compound]
[1]
  IC50: 130 nM
  S.I. (Selective Index): 2.7
[4]
  IC50: 0.36 µM

## C[C@]12C=CC3=CC4=C(CCCC4=O)O[C@H]3[C@@H]1CC(=O)[C@@H]2c1ccc2ccncc2c1 [CA-5, (3R,3aS,11aS,11bR)-3-(isoquinolin-7-yl)-3a-methyl-1,3,3a,9,10,11b-hexahydrocyclopenta[c]xanthene-2,7(8H,11aH)-dione]
[1]
  selective anti-proliferative activity against vascular endothelial cells: selectively inhibits the growth of vascular endothelial cells
[1]; listed as (LIV)
  selective anti-proliferative activity against vascular endothelial cells: selective anti-proliferative activity against vascular endothelial cells in a broad range of concentration

## C[C@]12C=CC3=CC4=C(CC(CO)CC4=O)O[C@H]3[C@@H]1CC[C@@H]2c1ccc2ccncc2c1 (stereo partly drawn) [CA-2, (3R,3aR,11aS,11bR)-9-(hydroxymethyl)-3-(isoquinolin-7-yl)-3a-methyl-1,3,3a,8,9,10,11a,11b-octahydrocyclopenta[c]xanthen-7(2H)-one]
[1]
  selective anti-proliferative activity against vascular endothelial cells: selectively inhibits the growth of vascular endothelial cells
[1]; listed as (XVIII)
  selective anti-proliferative activity against vascular endothelial cells: selective anti-proliferative activity against vascular endothelial cells in a broad range of concentration
